In paper PMC4552381, “Unraveling Comparative Anti-Amyloidogenic Behavior of Pyrazinamide and D-Cycloserine: A Mechanistic Biophysical Insight” (PLoS ONE, 2015) one finds Λ and binding constant data, which are given here for 2 compounds.

In assay [1] the target is T1, Hen egg white lysozyme (HEWL) (Gallus gallus, UniProt P00698).
T1 construct: gene LYZ; native egg-white protein, commercial (Sigma), dialysed; mature chain, 129 residues, monomer, four disulfides
The experiment in a line: heat-induced aggregation, turbidity at […] nm, single exponential fit. Type of assay: biochemical. The settings on record: pH 7.4, 65°C, 120 h, 10 μM HEWL, stirring; inhibition of aggregation.

The target in assay [2] is T1, Hen egg white lysozyme (HEWL). As to the kind of experiment: intrinsic Trp fluorescence quenching, modified Stern-Volmer. To be noted: pH 7.4, 20 mM sodium phosphate, 25°C, 5 μM HEWL, excitation 295 nm, double-log. It is filed as binding. The text has this: intrinsic Trp fluorescence quenching, modified Stern-Volmer on Hen egg white lysozyme (HEWL)

T1 sequence (P00698 19-147): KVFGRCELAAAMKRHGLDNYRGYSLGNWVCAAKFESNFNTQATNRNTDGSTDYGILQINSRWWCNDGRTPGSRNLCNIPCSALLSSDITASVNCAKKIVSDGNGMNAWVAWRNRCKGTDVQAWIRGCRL

In assay [1], `NC(=O)c1cnccn1` [pyrazinamide] displayed a Λ of 1500 M⁻¹. For the same compound, in assay [2] (n = 1.2), the binding constant result is recorded as “(2.45±0.19)×10^4 M^-1”.

`N[C@@H]1CONC1=O` [D-cycloserine, D-4-amino-3-isoxazolidone]: the Λ in assay [1] is 470 M⁻¹. For the same compound, the binding constant entry in assay [2] (n = 1.1, unreliable (text b59 prints another value)) is “(2.70±0.18)×10^3 M^-1”.
